Results on two compounds are retold here after patent publication US10478421B1, “Sortilin binding compounds, formulations, and uses thereof” (University of Florida, priority 2016, dated 2019).

Residues, ends and D or L forms follow the SMILES beside them.

By Kd is commonly meant the constant that tells how readily two partners part at equilibrium. The low end stands for tighter binding, the high end for weaker binding. As a reminder, the IC50 is the concentration that inhibits the measured activity by half.

The test deals with T1, hsortilin (Homo sapiens, UniProt Q99523).
T1 construct: Human sortilin (hsortilin) (Ser78-Asn755) with C-terminal 6-His tag; purchased R&D Systems, Inc. (Minneapolis, Minn.)
T1 sequence (Q99523 78-755): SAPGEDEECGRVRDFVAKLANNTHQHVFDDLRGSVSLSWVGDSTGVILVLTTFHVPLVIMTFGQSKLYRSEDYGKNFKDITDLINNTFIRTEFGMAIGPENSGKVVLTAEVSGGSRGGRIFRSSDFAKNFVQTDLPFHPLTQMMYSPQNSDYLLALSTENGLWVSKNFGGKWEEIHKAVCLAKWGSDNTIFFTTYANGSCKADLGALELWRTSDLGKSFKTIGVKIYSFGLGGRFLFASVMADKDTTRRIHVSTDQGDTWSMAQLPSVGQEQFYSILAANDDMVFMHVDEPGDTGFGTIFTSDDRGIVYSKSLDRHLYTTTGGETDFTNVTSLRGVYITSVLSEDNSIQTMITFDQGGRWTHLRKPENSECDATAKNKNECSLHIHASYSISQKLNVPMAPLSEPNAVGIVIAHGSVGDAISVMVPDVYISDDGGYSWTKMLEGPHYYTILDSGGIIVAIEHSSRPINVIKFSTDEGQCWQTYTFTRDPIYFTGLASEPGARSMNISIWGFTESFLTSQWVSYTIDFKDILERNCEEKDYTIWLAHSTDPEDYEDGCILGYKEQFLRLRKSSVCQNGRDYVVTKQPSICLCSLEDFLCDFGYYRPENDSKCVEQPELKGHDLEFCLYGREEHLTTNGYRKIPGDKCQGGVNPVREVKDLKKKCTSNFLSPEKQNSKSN
Nature of the test: Surface plasmon resonance on hsortilin immobilized on CM7 chips (Example 2). The class given is binding. As for the experimental part: Surface plasmon resonance (SPR) measurements were performed on a Biacore T200 instrument equipped with two separate CM7 sensor chips, one with about 20,000 response units (RU) and another with about 27,000 RU of hsortilin covalently immobilized. […] For all other SPR injections, regeneration consisted of injections of running buffer alone. GE BIAcore T200 evaluation software version 3.0 (BIAevaluate) was used to analyze and export results. […] PIP3 containing nanodiscs were flowed at 2:1 dilutions to obtain kinetic data fitted using about 27,000 RU CM7 surface. Kinetic fit generated with BIAevaluate and local Rmax using Langmuir 1:1 binding model exported from BIAevaluate to Microsoft Excel 2016 with fit indicated by the black line.

As to `CC[C@H](C)[C@H](NC(=O)[C@H](Cc1ccc(O)cc1)NC(=O)[C@@H]1CCCN1)C(=O)N[C@@H](CC(C)C)C(=O)O` [C-term NT, P—Y-I-L, reference compound] (H-PYIL-OH; N-terminus and C-terminus assumed), the Kd (C-term NT alone, steady state) worked out at 138 nM. This lies in the sub-micromolar range. On to `CCCC(=O)OC[C@H](COP(=O)(O)O[C@H]1[C@H](O)[C@@H](OP(=O)(O)O)[C@H](OP(=O)(O)O)[C@@H](OP(=O)(O)O)[C@H]1O)OC(=O)CCC` [diC4-PIP3, dibutanoyl PIP3, reference compound], for which, for the setting “100 nM NT, read-out: IC50 for inhibition of full length NT binding to sortilin”, the 50% inhibitory concentration (IC50) is roughly 750 nM.
